Laboratory results reported in ChEMBL document CHEMBL3885861, “Open TG-GATES”.

Organism: Rattus norvegicus
Assay: Open TG-GATES - Regimen: Daily Repeat
Type: toxicity, organism-based, Sprague-Dawley
Parameters: regimen Daily Repeat, gender Male, age 6 weeks
Conditions: in vivo, po, route gavage; for TP / gamma-GTP / ALP / ALT / AST / BUN / CRE / Ca / Cl / DBIL / GLC / IP / K / LDH / Na / PL / RALB / TBIL / TC / TG: tissue Plasma; for APTT / Bas / Eos / Fbg / Hb / Ht / Lym / MCH / MCV / Mono / Neu / PT / Plat / RBC / Ret / WBC / MCHC: tissue Blood; for KIDNEY_L / KIDNEY_R / KIDNEY_TOTAL: tissue Kidney; for LIVER: tissue Liver
[1] = 100 mg/kg, […], dose level Low, time 28 day
[2] = 300 mg/kg, 72 h, dose level Middle, time 3 day
[3] = 300 mg/kg, […], dose level Middle, time 7 day
[4] = 300 mg/kg, […], dose level Middle, time 14 day
[5] = 300 mg/kg, […], dose level Middle, time 28 day

## CCOc1ccc(NC(C)=O)cc1 [PHENACETIN]
[1]
  TP: 6.4 g/dL
  gamma-GTP: 1 IU/L
[2]
  TERMINAL_BW: 224.3 g
  APTT: 21.5 s
  Bas: 0%
  Eos: 1.2%
  Fbg: 290.8 mg/dL
  Hb: 13.5 g/dL
  Ht: 40.7%
  Lym: 75.2%
  MCH: 19.9 pg
  MCV: 60.1 fL
  Mono: 3.4%
  Neu: 19.4%
  PT: 13.4 s
  Plat: 119.3 x10_4/uL
  RBC: 678.8 x10_4/ul
  Ret: 4.8%
  WBC: 98.2 x10_2/uL
  KIDNEY_L: 1 g
  KIDNEY_R: 1 g
  KIDNEY_TOTAL: 2 g
  LIVER: 11.1 g
  ALP: 1609.6 IU/L
  ALT: 39.2 IU/L
  AST: 66.2 IU/L
  BUN: 13 mg/dL
  CRE: 0.2 mg/dL
  Ca: 11.1 mg/dL
  Cl: 104.8 meq/L
  DBIL: 0.01 mg/dL
  GLC: 166 mg/dL
  IP: 6.9 mg/dL
  K: 4 meq/L
  LDH: 69.4 IU/L
  Na: 143.2 meq/L
  PL: 174.4 mg/dL
  RALB: 2.7 g/dL
  TBIL: 0.044 mg/dL
  TC: 80.4 mg/dL
  TG: 145.4 mg/dL
  TP: 5.7 g/dL
  gamma-GTP: 1 IU/L
[3]
  TERMINAL_BW: 262.8 g
  APTT: 17.4 s
  Bas: 0%
  Eos: 1%
  Fbg: 302.6 mg/dL
  Hb: 13.3 g/dL
  Ht: 40.1%
  Lym: 71.8%
  MCH: 20 pg
  MCV: 60.2 fL
  Mono: 2.8%
  Neu: 24.2%
  PT: 13.3 s
  Plat: 122.3 x10_4/uL
  RBC: 666.2 x10_4/ul
  Ret: 6.7%
  WBC: 103.2 x10_2/uL
  KIDNEY_L: 1.2 g
  KIDNEY_R: 1.1 g
  KIDNEY_TOTAL: 2.3 g
  ALP: 1712.6 IU/L
  ALT: 39.4 IU/L
  AST: 64.6 IU/L
  CRE: 0.2 mg/dL
  Ca: 11 mg/dL
  Cl: 104.2 meq/L
  DBIL: 0.008 mg/dL
  GLC: 177.8 mg/dL
  IP: 6.9 mg/dL
  K: 4.3 meq/L
  LDH: 79.4 IU/L
  PL: 174.4 mg/dL
  RALB: 2.7 g/dL
  TBIL: 0.048 mg/dL
  TC: 81.6 mg/dL
  TG: 149 mg/dL
  TP: 5.9 g/dL
  gamma-GTP: 1.4 IU/L
[4]
  TERMINAL_BW: 306 g
  Bas: 0.2%
  Eos: 1%
  Fbg: 273.2 mg/dL
  Lym: 74.4%
  MCH: 19.9 pg
  MCHC: 33.5%
  MCV: 59.3 fL
  Mono: 2.2%
  Neu: 21.8%
  PT: 13.1 s
  Plat: 125.2 x10_4/uL
  RBC: 696.6 x10_4/ul
  Ret: 6.5%
  WBC: 128 x10_2/uL
  KIDNEY_L: 1.2 g
  KIDNEY_R: 1.2 g
  KIDNEY_TOTAL: 2.5 g
  LIVER: 12.6 g
  ALP: 1577.4 IU/L
  ALT: 37.2 IU/L
  AST: 63 IU/L
  BUN: 14.2 mg/dL
  CRE: 0.2 mg/dL
  Ca: 10.7 mg/dL
  DBIL: 0.02 mg/dL
  GLC: 181.8 mg/dL
  IP: 6.3 mg/dL
  K: 4.3 meq/L
  LDH: 159.2 IU/L
  Na: 144.2 meq/L
  PL: 162.2 mg/dL
  RALB: 2.7 g/dL
  TBIL: 0.086 mg/dL
  TC: 78.4 mg/dL
  TG: 91.2 mg/dL
  TP: 5.9 g/dL
  gamma-GTP: 1 IU/L
[5]
  TERMINAL_BW: 397.8 g
  APTT: 21.1 s
  Bas: 0.2%
  Eos: 1.2%
  Fbg: 262.4 mg/dL
  Hb: 14.4 g/dL
  Ht: 42.5%
  Lym: 76.4%
  MCH: 19.1 pg
  MCHC: 33.8%
  MCV: 56.4 fL
  Mono: 1.8%
  PT: 13.7 s
  Plat: 103.8 x10_4/uL
  RBC: 754.2 x10_4/ul
  Ret: 4.9%
  WBC: 159.4 x10_2/uL
  KIDNEY_L: 1.4 g
  KIDNEY_R: 1.4 g
  KIDNEY_TOTAL: 2.9 g
  ALP: 1081 IU/L
  ALT: 40 IU/L
  AST: 63 IU/L
  BUN: 14.4 mg/dL
  CRE: 0.3 mg/dL
  Cl: 105.6 meq/L
  DBIL: 0.02 mg/dL
  GLC: 175.4 mg/dL
  IP: 5.9 mg/dL
  K: 4.1 meq/L
  LDH: 53.2 IU/L
  Na: 145 meq/L
  PL: 156.2 mg/dL
  RALB: 2.8 g/dL
  TBIL: 0.074 mg/dL
  TC: 70.2 mg/dL
  TG: 122.8 mg/dL
  TP: 6.2 g/dL
  gamma-GTP: 1 IU/L
